# Tests used:
# Experiment in all cases: KINOMEscan
# Type in all cases: binding
# Conditions in all cases: read-out: % control activity remaining
# PLK1 = biological target: T1, PLK1 (Homo sapiens, UniProt P53350)
# T1 construct: purchased Eurofins DiscoverX KINOMEscan
# DCAMKL2 = biological target: T2, DCAMKL2 (Homo sapiens, UniProt Q8N568)
# T2 construct: purchased Eurofins DiscoverX KINOMEscan
# T2 sequence (Q8N568 1-766): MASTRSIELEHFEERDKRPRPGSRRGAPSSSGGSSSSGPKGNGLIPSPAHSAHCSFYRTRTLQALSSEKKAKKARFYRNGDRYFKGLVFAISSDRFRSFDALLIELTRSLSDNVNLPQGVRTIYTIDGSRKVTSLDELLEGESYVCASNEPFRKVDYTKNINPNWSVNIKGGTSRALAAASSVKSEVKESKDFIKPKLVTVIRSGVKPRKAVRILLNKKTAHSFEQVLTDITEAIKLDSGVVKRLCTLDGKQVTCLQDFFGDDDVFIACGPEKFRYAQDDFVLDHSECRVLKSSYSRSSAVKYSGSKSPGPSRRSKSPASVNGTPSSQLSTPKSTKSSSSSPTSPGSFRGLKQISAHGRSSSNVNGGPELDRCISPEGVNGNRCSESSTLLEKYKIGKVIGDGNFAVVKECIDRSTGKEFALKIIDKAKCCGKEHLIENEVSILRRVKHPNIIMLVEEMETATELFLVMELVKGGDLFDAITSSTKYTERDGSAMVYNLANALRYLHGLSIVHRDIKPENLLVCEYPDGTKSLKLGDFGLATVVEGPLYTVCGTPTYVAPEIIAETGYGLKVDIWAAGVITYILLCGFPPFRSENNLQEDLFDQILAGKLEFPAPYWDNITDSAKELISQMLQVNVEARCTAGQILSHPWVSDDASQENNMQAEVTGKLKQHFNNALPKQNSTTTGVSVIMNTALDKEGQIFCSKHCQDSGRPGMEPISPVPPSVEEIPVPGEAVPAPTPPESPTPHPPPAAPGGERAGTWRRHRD
# ASK1 = biological target: T3, ASK1 (Homo sapiens, UniProt Q99683)
# T3 construct: purchased Eurofins DiscoverX KINOMEscan
# T3 sequence (Q99683 1-1374): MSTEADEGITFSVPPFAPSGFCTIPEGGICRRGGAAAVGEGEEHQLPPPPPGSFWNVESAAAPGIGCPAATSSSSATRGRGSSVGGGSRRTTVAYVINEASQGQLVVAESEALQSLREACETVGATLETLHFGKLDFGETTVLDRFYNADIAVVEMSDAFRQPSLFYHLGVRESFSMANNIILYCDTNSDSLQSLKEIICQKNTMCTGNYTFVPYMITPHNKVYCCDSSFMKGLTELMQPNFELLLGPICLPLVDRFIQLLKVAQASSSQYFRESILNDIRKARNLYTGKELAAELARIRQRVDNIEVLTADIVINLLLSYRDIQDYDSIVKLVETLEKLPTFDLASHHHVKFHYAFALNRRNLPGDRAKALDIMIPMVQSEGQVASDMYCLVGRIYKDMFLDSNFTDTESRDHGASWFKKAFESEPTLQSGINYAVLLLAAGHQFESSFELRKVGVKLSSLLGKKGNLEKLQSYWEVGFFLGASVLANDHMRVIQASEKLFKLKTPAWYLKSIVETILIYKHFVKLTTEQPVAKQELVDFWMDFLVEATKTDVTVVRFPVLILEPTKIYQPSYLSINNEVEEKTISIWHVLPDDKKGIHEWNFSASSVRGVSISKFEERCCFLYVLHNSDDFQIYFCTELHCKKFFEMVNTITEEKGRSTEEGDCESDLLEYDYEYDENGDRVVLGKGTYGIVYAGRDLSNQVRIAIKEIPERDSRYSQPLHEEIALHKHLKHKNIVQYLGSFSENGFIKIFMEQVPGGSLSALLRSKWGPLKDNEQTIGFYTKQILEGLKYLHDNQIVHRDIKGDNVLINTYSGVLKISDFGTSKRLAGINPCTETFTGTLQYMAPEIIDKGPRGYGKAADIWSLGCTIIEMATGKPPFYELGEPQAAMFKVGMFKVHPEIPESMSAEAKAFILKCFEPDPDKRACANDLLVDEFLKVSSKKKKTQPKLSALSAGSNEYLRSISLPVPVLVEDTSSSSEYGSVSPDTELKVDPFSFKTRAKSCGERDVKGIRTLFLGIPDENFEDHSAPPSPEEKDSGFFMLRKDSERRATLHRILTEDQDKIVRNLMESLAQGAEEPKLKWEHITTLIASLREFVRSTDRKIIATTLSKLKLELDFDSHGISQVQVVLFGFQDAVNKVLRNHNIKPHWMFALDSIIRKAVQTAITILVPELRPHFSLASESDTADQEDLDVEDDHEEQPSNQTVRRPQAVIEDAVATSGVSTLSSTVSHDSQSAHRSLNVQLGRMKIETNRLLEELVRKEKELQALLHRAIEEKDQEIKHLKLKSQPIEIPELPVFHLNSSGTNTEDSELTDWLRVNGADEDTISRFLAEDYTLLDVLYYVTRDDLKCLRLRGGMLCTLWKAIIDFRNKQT
# PAK6 = biological target: T4, PAK6 (Homo sapiens, UniProt Q9NQU5)
# T4 construct: purchased Eurofins DiscoverX KINOMEscan
# PIK3CA(H1047Y) = biological target: T5, PIK3CA(H1047Y) (Homo sapiens, UniProt P42336, H1047Y)
# T5 construct: purchased Eurofins DiscoverX KINOMEscan
# CDKL2 = biological target: T6, CDKL2 (Homo sapiens, UniProt Q92772)
# T6 construct: purchased Eurofins DiscoverX KINOMEscan
# T6 sequence (Q92772 1-493): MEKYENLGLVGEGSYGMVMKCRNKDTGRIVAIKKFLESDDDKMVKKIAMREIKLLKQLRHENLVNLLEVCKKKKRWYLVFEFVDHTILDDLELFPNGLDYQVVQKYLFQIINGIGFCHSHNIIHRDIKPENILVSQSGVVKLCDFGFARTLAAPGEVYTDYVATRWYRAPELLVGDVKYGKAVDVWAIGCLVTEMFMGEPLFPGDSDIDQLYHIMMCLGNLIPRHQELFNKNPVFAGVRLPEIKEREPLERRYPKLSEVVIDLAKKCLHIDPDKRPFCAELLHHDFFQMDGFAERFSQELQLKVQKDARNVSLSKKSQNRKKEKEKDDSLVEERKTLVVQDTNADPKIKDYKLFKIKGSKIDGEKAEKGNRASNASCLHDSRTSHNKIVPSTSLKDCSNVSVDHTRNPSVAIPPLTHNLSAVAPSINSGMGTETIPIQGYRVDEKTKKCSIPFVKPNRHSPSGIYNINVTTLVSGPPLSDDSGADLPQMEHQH
# [1] = biological target: T7, ABL1(Q252H)-phosphorylated (Homo sapiens, UniProt P00519, Q252H)
# T7 construct: purchased Eurofins DiscoverX KINOMEscan
# [2] = biological target: T8, JAK2(JH1domain-catalytic) (Homo sapiens, UniProt O60674)
# T8 construct: JAK2(JH1domain-catalytic); purchased Eurofins DiscoverX KINOMEscan
# T8 sequence (O60674 849-1132 limits assumed): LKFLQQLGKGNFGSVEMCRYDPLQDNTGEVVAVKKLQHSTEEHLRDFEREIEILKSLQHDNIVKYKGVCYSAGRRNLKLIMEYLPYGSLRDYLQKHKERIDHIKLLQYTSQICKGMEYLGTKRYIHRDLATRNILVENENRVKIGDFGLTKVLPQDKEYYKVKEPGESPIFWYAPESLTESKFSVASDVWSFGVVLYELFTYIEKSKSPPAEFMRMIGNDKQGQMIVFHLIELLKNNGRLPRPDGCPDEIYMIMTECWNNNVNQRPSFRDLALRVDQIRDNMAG
# T5 sequence (P42336 whole entry H1047Y): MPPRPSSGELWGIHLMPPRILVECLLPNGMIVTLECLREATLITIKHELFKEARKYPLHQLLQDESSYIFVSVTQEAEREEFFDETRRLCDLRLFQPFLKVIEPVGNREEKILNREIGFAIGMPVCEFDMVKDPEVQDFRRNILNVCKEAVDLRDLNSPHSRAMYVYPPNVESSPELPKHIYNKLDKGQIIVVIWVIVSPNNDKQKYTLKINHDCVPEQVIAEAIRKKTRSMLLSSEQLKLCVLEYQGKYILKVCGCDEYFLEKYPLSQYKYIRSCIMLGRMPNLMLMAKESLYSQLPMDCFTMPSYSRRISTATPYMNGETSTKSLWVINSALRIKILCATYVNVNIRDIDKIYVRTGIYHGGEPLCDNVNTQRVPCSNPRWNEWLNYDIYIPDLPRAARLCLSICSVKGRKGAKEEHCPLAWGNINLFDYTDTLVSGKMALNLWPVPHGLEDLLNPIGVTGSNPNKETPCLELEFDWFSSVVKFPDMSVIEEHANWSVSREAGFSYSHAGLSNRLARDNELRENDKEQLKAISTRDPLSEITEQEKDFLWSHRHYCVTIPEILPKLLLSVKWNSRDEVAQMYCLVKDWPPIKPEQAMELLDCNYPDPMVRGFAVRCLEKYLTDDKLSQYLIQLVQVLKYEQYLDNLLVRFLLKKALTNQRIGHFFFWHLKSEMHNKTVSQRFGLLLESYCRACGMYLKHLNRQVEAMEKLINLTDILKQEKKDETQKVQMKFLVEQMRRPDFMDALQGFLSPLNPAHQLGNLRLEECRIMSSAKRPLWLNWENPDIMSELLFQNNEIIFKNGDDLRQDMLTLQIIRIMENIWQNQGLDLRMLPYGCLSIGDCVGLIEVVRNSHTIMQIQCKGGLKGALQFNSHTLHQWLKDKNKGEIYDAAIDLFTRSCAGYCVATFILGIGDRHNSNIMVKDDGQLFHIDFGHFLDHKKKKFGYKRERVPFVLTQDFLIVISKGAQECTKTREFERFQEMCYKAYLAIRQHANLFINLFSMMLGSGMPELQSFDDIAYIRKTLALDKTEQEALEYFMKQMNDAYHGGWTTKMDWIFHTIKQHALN
# T4 sequence (Q9NQU5 whole entry): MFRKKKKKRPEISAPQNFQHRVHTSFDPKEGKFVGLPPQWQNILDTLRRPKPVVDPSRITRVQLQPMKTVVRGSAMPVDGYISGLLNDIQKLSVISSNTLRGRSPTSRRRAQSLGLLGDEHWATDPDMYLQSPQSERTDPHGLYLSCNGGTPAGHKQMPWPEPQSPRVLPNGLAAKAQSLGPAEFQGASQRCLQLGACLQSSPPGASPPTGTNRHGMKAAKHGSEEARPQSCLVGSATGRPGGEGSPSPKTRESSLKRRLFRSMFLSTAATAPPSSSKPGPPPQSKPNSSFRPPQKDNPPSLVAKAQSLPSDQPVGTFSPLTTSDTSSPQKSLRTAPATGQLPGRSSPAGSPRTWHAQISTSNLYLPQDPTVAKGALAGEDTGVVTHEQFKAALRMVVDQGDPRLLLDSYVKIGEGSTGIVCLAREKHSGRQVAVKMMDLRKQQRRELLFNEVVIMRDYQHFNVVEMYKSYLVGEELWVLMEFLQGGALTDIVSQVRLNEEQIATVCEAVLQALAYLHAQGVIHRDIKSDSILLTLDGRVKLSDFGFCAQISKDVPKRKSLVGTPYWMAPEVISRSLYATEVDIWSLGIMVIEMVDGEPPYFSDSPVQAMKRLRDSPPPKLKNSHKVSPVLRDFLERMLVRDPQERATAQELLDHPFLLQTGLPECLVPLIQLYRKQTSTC
# T1 sequence (P53350 whole entry): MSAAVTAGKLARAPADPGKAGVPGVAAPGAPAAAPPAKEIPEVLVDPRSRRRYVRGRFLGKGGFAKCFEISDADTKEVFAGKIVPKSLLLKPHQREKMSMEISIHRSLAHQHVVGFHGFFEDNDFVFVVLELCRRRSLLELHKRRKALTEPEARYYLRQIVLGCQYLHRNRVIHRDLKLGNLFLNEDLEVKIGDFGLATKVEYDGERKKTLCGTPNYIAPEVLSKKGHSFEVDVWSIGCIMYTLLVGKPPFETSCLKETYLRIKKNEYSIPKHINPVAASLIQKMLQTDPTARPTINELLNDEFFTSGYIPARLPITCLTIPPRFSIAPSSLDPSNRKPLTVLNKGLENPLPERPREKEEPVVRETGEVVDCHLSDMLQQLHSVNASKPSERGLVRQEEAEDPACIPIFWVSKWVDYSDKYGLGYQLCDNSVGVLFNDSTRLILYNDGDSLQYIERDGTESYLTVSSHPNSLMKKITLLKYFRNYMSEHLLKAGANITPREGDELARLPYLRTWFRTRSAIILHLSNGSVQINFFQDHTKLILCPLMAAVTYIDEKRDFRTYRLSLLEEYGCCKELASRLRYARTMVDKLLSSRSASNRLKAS
smiles,measurement,setting,value
"Clc1cc(NCC2CC2)c2ncc(-c3ccc4[nH]ncc4c3)n2n1 [compound 2, 6-Chloro-N-(cyclopropylmethyl)-3-(1H-indazol-5-yl)imidazo[1,2-b]pyridazin-8-amine]",remaining binding at 1 µM,PLK1,97%
same,remaining binding at 1 µM,DCAMKL2,95%
same,remaining binding at 1 µM,ASK1,70%
same,remaining binding at 1 µM,PAK6,100%
same,remaining binding at 1 µM,PIK3CA(H1047Y),89%
same,remaining binding at 1 µM,CDKL2,83%
same,remaining binding at 1 µM,[1],78%
same,remaining binding at 1 µM,[2],91%
O=C(CN1CCOCC1)N[C@H]1CC[C@H](Nc2cc(Cl)nn3c(-c4ccc5[nH]ncc5c4)cnc23)CC1 [compound 26],remaining binding at 1 µM,PLK1,90%
same,remaining binding at 1 µM,DCAMKL2,92%
same,remaining binding at 1 µM,ASK1,100%
same,remaining binding at 1 µM,PAK6,98%
same,remaining binding at 1 µM,PIK3CA(H1047Y),82%
same,remaining binding at 1 µM,CDKL2,88%
same,remaining binding at 1 µM,[1],46%
same,remaining binding at 1 µM,[2],99%
"CN1CCC(CNc2cc(Cl)nn3c(-c4cc5nc(Nc6ccccc6)[nH]c5cc4F)cnc23)CC1 [compound 31, 6-Chloro-3-(6-fluoro-2-(phenylamino)-1H-benzo[d]imidazol-5-yl)-N-((1-methylpiperidin-4-yl)methyl)imidazo[1,2-b]pyridazin-8-amine]",remaining binding at 1 µM,PLK1,96%
same,remaining binding at 1 µM,DCAMKL2,96%
same,remaining binding at 1 µM,ASK1,100%
same,remaining binding at 1 µM,PAK6,97%
same,remaining binding at 1 µM,PIK3CA(H1047Y),100%
same,remaining binding at 1 µM,CDKL2,81%
same,remaining binding at 1 µM,[1],79%
same,remaining binding at 1 µM,[2],100%

# Source: PMC6437697 (Journal of Medicinal Chemistry, 2019)
